Results as given in patent US20100119599A1 (ARCHER PHARMACEUTICALS, INC., priority 2006, published 2010).
Where two headings read alike, the source gives them in different places.

What was measured:
Aβ1-42 = assay: Measurement of Aβ1-42 in culture medium of 7W WT APP751 CHO cells by ELISA; format: cell-based, Chinese hamster; conditions: for activity at 5 µM: Cricetulus griseus, 5 μM test compound, CHO cells stably transfected with human APP751, culture medium, ELISA, control DMSO; for Aβ1-42 (% of control): CHO cells that overexpress APP751, zero = below the detection limit of the assay;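 as to Aβ1-42 (% of control): 5 µM test compound but RI-coded compounds at 10 µM for 24 hours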
Aβ1-40 = assay: Measurement of Aβ1-40 in culture medium of 7W WT APP751 CHO cells by ELISA; format: cell-based, Chinese hamster; conditions: for activity at 5 µM: Cricetulus griseus, 5 μM test compound, CHO cells stably transfected with human APP751, culture medium, ELISA, control DMSO; for Aβ1-40 (% of control): CHO cells that overexpress APP751, zero = below the detection limit of the assay;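 as to all read-outs here: 5 µM test compound but RI-coded compounds at 10 µM for 24 hours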
[1] = Table 1, 0 = no detectable amount, read-out: Aβ1-42 (% of control)
[2] = Table 1, 0 = no detectable amount
[3] = Table 3, read-out: Aβ-42 (% of control)

Question: For `COCCOC(=O)C1=C(C)NC2=C(C(=O)CCC2)C1c1cccc(OC)c1` (centres unmarked) [ST015219, 2-methoxyethyl 4-(3-methoxyphenyl)-2-methyl-5-oxo-1,4,6,7,8-pentahydroquinoline-3-carboxylate], which activity at 5 µM (Aβ1-42; [1]) is on record?
Answer: 45.8%

Question: What about the activity at 5 µM (Aβ1-40; [2]) of the same compound?
Answer: 83.7%

Question: `N#CC(C#N)=CC=C1C=CN(C2CCCCC2)C=C1` [ST019328] was tested. Which activity at 5 µM (Aβ1-42; [3]) did it give?
Answer: 92.2%

Question: And the activity at 5 µM (Aβ1-40; Table 3)?
Answer: 59%

Question: Which results are given for `CC1=C(C(=O)Nc2ccc(Cl)cc2)C(c2ccccc2)C(C#N)=C(SCC(=O)Nc2cccc(C)c2)N1` (centres unmarked) [ST051153, 2-{5-[N-(4-chlorophenyl)carbamoyl]-3-cyano-6-methyl-4-phenyl(2-1,4-dihydropyridylthio)}-N-(3-methylphenyl)acetamide]?
Answer: Aβ1-42 (% of control) (Aβ1-42): 0 % of control; Aβ1-40 (% of control) (Aβ1-40): 4.933 % of control

Question: For `CC1=C(C(=O)OC2CCCCC2)C(c2ccc(Cl)c(Cl)c2)C2=C(CC(c3ccccc3)CC2=O)N1` (centres unmarked) [ST013350, cyclohexyl 4-(3,4-dichlorophenyl)-2-methyl-5-oxo-7-phenyl-1,4,6,7,8-pentahydroquinoline-3-carboxylate], which activity at 5 µM (Aβ1-42; [1]) is on record?
Answer: 95.6%

Question: And the activity at 5 µM (Aβ1-40; [2])?
Answer: 25.1%

Question: How did the activity at 5 µM (Aβ1-42; [1]) turn out when `N#CC1=C(SCC(=O)Nc2ccc(Br)cc2)NC2=C(C(=O)CCC2)C1c1ccccc1Cl` (centres unmarked) [ST050407, N-(4-bromophenyl)-2-[4-(2-chlorophenyl)-3-cyano-5-oxo(2-1,4,6,7,8-pentahydroquinolylthio)]acetamide] was run?
Answer: 44.3%

Question: What about the activity at 5 µM (Aβ1-40; [2]) of the same compound?
Answer: 56.7%

Question: Which activity at 5 µM (Aβ1-42; [1]) does the source give for `COc1ccc(C2CC(=O)C3=C(C2)NC(C)=C(C(=O)OCc2ccccc2)C3c2cc(OC)c(OC)c(OC)c2)cc1` (centres unmarked) [ST017244, phenylmethyl 7-(4-methoxyphenyl)-2-methyl-5-oxo-4-(3,4,5-trimethoxyphenyl)-1,4,6,7,8-pentahydroquinoline-3-carboxylate] here?
Answer: 24.4%

Question: What about the activity at 5 µM (Aβ1-40; [2]) of the same compound?
Answer: 65.4%

Question: For `CCOC(=O)C1=C(C)NC2=C(C(=O)CC(c3ccc(OC)cc3)C2)C1c1ccc(OC)cc1` (centres unmarked) [ST017136, ethyl 4,7-bis(4-methoxyphenyl)-2-methyl-5-oxo-1,4,6,7,8-pentahydroquinoline-3-carboxylate], which activity at 5 µM (Aβ1-42; [1]) is on record?
Answer: 66.1%

Question: And the activity at 5 µM (Aβ1-40; [2])?
Answer: 87.7%

Question: For `COC(=O)C1=C(C)NC2=C(C(=O)CCC2)C1c1cccc(OC)c1` (centres unmarked) [ST013153, methyl 4-(3-methoxyphenyl)-2-methyl-5-oxo-1,4,6,7,8-pentahydroquinoline-3-carboxylate], which activity at 5 µM (Aβ1-42; [1]) is on record?
Answer: 66.3%

Question: And the activity at 5 µM (Aβ1-40; [2])?
Answer: 91.4%

Question: Which activity at 5 µM (Aβ1-42; [1]) does the source give for `CCOC(=O)C1=C(C)NC2=C(C(=O)CCC2)C1c1ccc(C(=O)OC)cc1` (centres unmarked) [ST013173, methyl 4-[3-(ethoxycarbonyl)-2-methyl-5-oxo-4-1,4,6,7,8-pentahydroquinolyl]benzoate] here?
Answer: 78.1%

Question: What about the activity at 5 µM (Aβ1-40; [2]) of the same compound?
Answer: 39.2%

Question: Which “Aβ1-42 (% of control)” value (Aβ1-42) does the source give for `CC1=C(C(=O)Nc2ccccc2)C(c2cccs2)C(C#N)=C(SCC(=O)NCCC(C)(C)C)N1` (centres unmarked) [RI_17] here?
Answer: 24.1 % of control

Question: And the “Aβ1-40 (% of control)” value (Aβ1-40)?
Answer: 18.2 % of control

Question: `CC1=C(C(=O)OCc2ccccc2)C(c2ccccc2Br)C2=C(CC(C)(C)CC2=O)N1` (centres unmarked) [ST216854, phenylmethyl 4-(2-bromophenyl)-2,7,7-trimethyl-5-oxo-1,4,6,7,8-pentahydroquinoline-3-carboxylate] was tested. Which activity at 5 µM (Aβ1-42; [1]) did it give?
Answer: 60%

Question: And the activity at 5 µM (Aβ1-40; [2])?
Answer: 29.4%

Question: Which results are given for `CCCCOC(=O)C1=C(C)NC2=C(C(=O)CCC2)C1c1ccc(Cl)cc1` (centres unmarked) [ST017175, butyl 4-(4-chlorophenyl)-2-methyl-5-oxo-1,4,6,7,8-pentahydroquinoline-3-carboxylate]?
Answer: activity at 5 µM (Aβ1-42; [1]): 34.5%; activity at 5 µM (Aβ1-40; [2]): 59.8%

Question: What does the source list for `CC1=C(C(=O)Nc2ccccc2)C(c2ccccc2)C(C#N)=C(SCC(=O)Nc2ccccc2C)N1` (centres unmarked) [RI_16]?
Answer: Aβ1-42 (% of control) (Aβ1-42): 105 % of control; Aβ1-40 (% of control) (Aβ1-40): 64.2 % of control

Question: Which results are given for `CCCCCOC(=O)C1=C(C)NC2=C(C(=O)CC(C)(C)C2)C1c1ccc(OCCC)cc1` (centres unmarked) [ST217244, pentyl 2,7,7-trimethyl-5-oxo-4-(4-propoxyphenyl)-1,4,6,7,8-pentahydroquinoline-3-carboxylate]?
Answer: activity at 5 µM (Aβ1-42; [1]): 41.5%; activity at 5 µM (Aβ1-40; [2]): 24.9%

Question: For `CC1=C(C(=O)Nc2ccccc2)C(c2ccsc2)C(C#N)=C(SCC(=O)Nc2ccccc2C)N1` (centres unmarked) [RI_48], which “Aβ1-42 (% of control)” value (Aβ1-42) is on record?
Answer: 100 % of control

Question: What about the “Aβ1-40 (% of control)” value (Aβ1-40) of the same compound?
Answer: 86.5 % of control

Question: Which activity at 5 µM (Aβ1-42; [1]) does the source give for `COCCOC(=O)C1=C(C)NC2=C(C(=O)CC(c3ccc(OC)cc3)C2)C1c1ccc2c(c1)OCO2` (centres unmarked) [ST017094, 2-methoxyethyl 4-(2H-benzo[3,4-d]1,3-dioxolen-5-yl)-7-(4-methoxyphenyl)-2-methyl-5-oxo-1,4,6,7,8-pentahydroquinoline-3-carboxylate] here?
Answer: 73.8%

Question: And the activity at 5 µM (Aβ1-40; [2])?
Answer: 68.9%

Question: Which activity at 5 µM (Aβ1-42; [1]) does the source give for `COc1ccc(OC)c(C2C(C#N)=C(C)NC3=C2C(=O)CC(c2ccccc2)C3)c1` (centres unmarked) [ST018638, 4-(2,5-dimethoxyphenyl)-2-methyl-5-oxo-7-phenyl-1,4,6,7,8-pentahydroquinoline-3-carbonitrile] here?
Answer: 53.8%

Question: And the activity at 5 µM (Aβ1-40; [2])?
Answer: 45.4%

Question: How did the “Aβ1-42 (% of control)” value (Aβ1-42) turn out when `COC(=O)C1=CN(C2CC2)C=C(C(=O)OC)C1c1cccc(F)c1` [ST038735, methyl 1-cyclopropyl-4-(3-fluorophenyl)-5-(methoxycarbonyl)-1,4-dihydropyridine-3-carboxylate] was run?
Answer: 98.52 % of control

Question: And the “Aβ1-40 (% of control)” value (Aβ1-40)?
Answer: 65.36 % of control

Question: What does the source list for `CC1=C(C(=O)OCCOc2ccccc2)C(c2ccccc2Br)C2=C(CCCC2=O)N1` (centres unmarked) [ST052219, 2-phenoxyethyl 4-(2-bromophenyl)-2-methyl-5-oxo-1,4,6,7,8-pentahydroquinoline-3-carboxylate]?
Answer: activity at 5 µM (Aβ1-42; [1]): 24.7%; activity at 5 µM (Aβ1-40; [2]): 14%

Question: With `Cc1cc(=O)cc(C)n1NC(N)=S` [ST002431, 1-[(aminothioxomethyl)amino]-2,6-dimethylhydropyridin-4-one] as the compound, how does the activity at 5 µM (Aβ1-42; [3]) read?
Answer: 97.6%

Question: And the activity at 5 µM (Aβ1-40; Table 3)?
Answer: 16.9%

Question: With `CCCCOC(=O)C1=C(C)NC2=C(C(=O)CCC2)C1c1cccc(Cl)c1` (centres unmarked) [ST013428, butyl 4-(3-chlorophenyl)-2-methyl-5-oxo-1,4,6,7,8-pentahydroquinoline-3-carboxylate] as the compound, how does the activity at 5 µM (Aβ1-42; [1]) read?
Answer: 40.9%

Question: And the activity at 5 µM (Aβ1-40; [2])?
Answer: 25.1%

Question: What does the source list for `CC(C)COc1cccc(/C=c2\sc3n(c2=O)C(N)=C(C#N)C(c2cccc(OCC(C)C)c2)C=3C#N)c1` (centres unmarked) [ST025023, 5-amino-7-[3-(2-methylpropoxy)phenyl]-2-{[3-(2-methylpropoxy)phenyl]methylene}-3-oxo-4,7-dihydro-1,3-thiazolidino[3,2-a]pyridine-6,8-dicarbonitrile]?
Answer: Aβ1-42 (% of control) (Aβ1-42): 85.29 % of control; Aβ1-40 (% of control) (Aβ1-40): 68.13 % of control

Question: What does the source list for `CCSCCOC(=O)C1=C(C)NC2=C(C(=O)CCC2)C1c1ccccc1Br` (centres unmarked) [ST017199, 2-ethylthioethyl 4-(2-bromophenyl)-2-methyl-5-oxo-1,4,6,7,8-pentahydroquinoline-3-carboxylate]?
Answer: activity at 5 µM (Aβ1-42; [1]): 100%; activity at 5 µM (Aβ1-40; [2]): 47.9%

Question: `CC1=C(C(=O)Nc2ccccc2)C(c2ccsc2)C(C#N)=C(SCC(=O)Nc2cccc(Cl)c2)N1` (centres unmarked) [RI_70] was tested. Which “Aβ1-42 (% of control)” value (Aβ1-42) did it give?
Answer: 58.2 % of control

Question: And the “Aβ1-40 (% of control)” value (Aβ1-40)?
Answer: 74.1 % of control

Question: How did the activity at 5 µM (Aβ1-42; [1]) turn out when `COCCOC(=O)C1=C(C)NC2=C(C(=O)CC(C)(C)C2)C1c1ccc(C(C)C)cc1` (centres unmarked) [ST052313, 2-methoxyethyl 2,7,7-trimethyl-4-[4-(methylethyl)phenyl]-5-oxo-1,4,6,7,8-pentahydroquinoline-3-carboxylate] was run?
Answer: 23.4%

Question: And the activity at 5 µM (Aβ1-40; [2])?
Answer: 26.3%

Question: With `COc1ccc(COC(=O)C2=C(C)NC3=C(C(=O)CC(C)(C)C3)C2c2cc3c(cc2[NH+]([O-])O)OCO3)cc1` (centres unmarked) [ST017054, (4-methoxyphenyl)methyl 2,7,7-trimethyl-4-(6-nitro(2H-benzo[d]1,3-dioxolan-5-yl))-5-oxo-1,4,6,7,8-pentahydroquinoline-3-carboxylate] as the compound, how does the activity at 5 µM (Aβ1-42; [1]) read?
Answer: 9.54%

Question: And the activity at 5 µM (Aβ1-40; [2])?
Answer: 46.5%

Question: Which activity at 5 µM (Aβ1-42; [1]) does the source give for `CCOCCOC(=O)C1=C(C)NC2=C(C(=O)CCC2)C1c1cc(OC)c(OC)c(OC)c1` (centres unmarked) [ST013345, 2-ethoxyethyl 2-methyl-5-oxo-4-(3,4,5-trimethoxyphenyl)-1,4,6,7,8-pentahydroquinoline-3-carboxylate] here?
Answer: 75.4%

Question: What about the activity at 5 µM (Aβ1-40; [2]) of the same compound?
Answer: 58.4%

Question: Which results are given for `CC1=C(C(=O)OCCc2ccccc2)C(c2ccc(C)cc2)C2=C(CC(C)(C)CC2=O)N1` (centres unmarked) [ST015099, 2-phenylethyl 2,7,7-trimethyl-4-(4-methylphenyl)-5-oxo-1,4,6,7,8-pentahydroquinoline-3-carboxylate]?
Answer: activity at 5 µM (Aβ1-42; [1]): 33.8%; activity at 5 µM (Aβ1-40; [2]): 14.8%

Question: How did the “Aβ1-42 (% of control)” value (Aβ1-42) turn out when `CCOC(=O)C1=C(N)n2c(s/c(=C\c3ccc(C(C)C)cc3)c2=O)=C(S(=O)(=O)c2ccccc2)C1c1ccc(C(C)C)cc1` (centres unmarked) [ST011326] was run?
Answer: 72.95 % of control

Question: And the “Aβ1-40 (% of control)” value (Aβ1-40)?
Answer: 54.94 % of control

Question: What does the source list for `N#CC1=C(N)N(c2sc3c(c2C#N)CCCC3)C2=C(CCC2)C1(C(F)(F)F)C(F)(F)F` [ST044920, 2-[2-amino-4,4-bis(trifluoromethyl)-3-cyano-1,4,5,6,7-pentahydrocyclopenta[1,2-b]pyridinyl]-4,5,6,7-tetrahydrobenzo[b]thiophene-3-carbonitrile]?
Answer: activity at 5 µM (Aβ1-42; [3]): 48.2%; activity at 5 µM (Aβ1-40; Table 3): 76.9%

Question: For `COC(=O)C1=CN(C23CC4CC(CC(C4)C2)C3)C=C(C(=O)OC)C1c1cccc([N+](=O)[O-])c1` [ST045329, methyl 1-adamantanyl-5-(methoxycarbonyl)-4-(3-nitrophenyl)-1,4-dihydropyridine-3-carboxylate], which “Aβ1-42 (% of control)” value (Aβ1-42) is on record?
Answer: 68.52 % of control

Question: And the “Aβ1-40 (% of control)” value (Aβ1-40)?
Answer: 82.6 % of control
